We go through four compounds from article PMC9908614 (Frontiers in Microbiology, 2023).

The target in data set [1] is T1, EphH (Rv3338) (Mycobacterium tuberculosis, UniProt O53388). In kind it is biochemical.
The target of data set [2] is T1, EphH (Rv3338). Kind of data set: biochemical. Conditions: read-out: rEphH.
For data set [3], the target named is T2, sEH (human recombinant sEH) (Homo sapiens, UniProt P34913).
T2 construct: gene EPHX2
T2 sequence (P34913 1-555): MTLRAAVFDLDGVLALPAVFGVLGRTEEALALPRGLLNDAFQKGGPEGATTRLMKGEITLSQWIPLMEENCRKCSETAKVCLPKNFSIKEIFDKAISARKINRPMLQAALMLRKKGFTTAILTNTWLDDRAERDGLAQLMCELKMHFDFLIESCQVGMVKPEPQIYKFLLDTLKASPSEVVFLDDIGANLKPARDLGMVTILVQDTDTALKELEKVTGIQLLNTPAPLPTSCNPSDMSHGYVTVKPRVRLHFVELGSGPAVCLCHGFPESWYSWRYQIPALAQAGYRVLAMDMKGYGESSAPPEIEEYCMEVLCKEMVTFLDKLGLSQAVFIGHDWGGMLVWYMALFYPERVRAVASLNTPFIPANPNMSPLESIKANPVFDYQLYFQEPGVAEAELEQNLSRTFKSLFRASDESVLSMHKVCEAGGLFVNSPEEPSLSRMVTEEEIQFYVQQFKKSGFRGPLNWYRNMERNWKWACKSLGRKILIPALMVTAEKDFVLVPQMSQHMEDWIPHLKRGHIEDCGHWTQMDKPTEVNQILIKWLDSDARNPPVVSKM
Kind of data set: fluorescence hydrolysis assay, Michaelis-Menten (Km). In kind it is biochemical. Conditions: cited from earlier work.

Data set [4] deals with COc1ccc2cc(C(C#N)OC(=O)CC3OC3c3ccccc3)ccc2c1. Kind of data set: purified protein.

T1 sequence (O53388 whole entry): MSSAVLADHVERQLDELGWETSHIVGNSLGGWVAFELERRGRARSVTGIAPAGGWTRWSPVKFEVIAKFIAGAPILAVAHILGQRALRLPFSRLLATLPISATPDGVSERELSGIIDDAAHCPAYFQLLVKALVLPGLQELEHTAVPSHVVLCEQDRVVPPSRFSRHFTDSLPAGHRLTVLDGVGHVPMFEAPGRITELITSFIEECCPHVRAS

In the case of `c1ccc(C2CO2)cc1` (racemic) [styrene oxide], on EphH (Rv3338) [1], the “colorimetric Red assay (NaIO4/adrenaline) with purified rEphH” value is “EphH activity was also determined with another EH substrate, styrene oxide”.

With `O=C(O)CCCCCCCCCCCNC(=O)NC12CC3CC(CC(C3)C1)C2` [AUDA, 12-(3-adamantane-1-yl-ureido)-dodecanoic acid], the IC50 at EphH (Rv3338) [2] came out at 9.4 ± 0.5 nM.

For `COc1ccc2cc(C(C#N)OC(=O)CC3OC3c3ccccc3)ccc2c1` (stereo not drawn) [PHOME, (3-phenyl-oxiranyl)-acetic acid cyano-(6-methoxynaphthalen-2-yl)-methyl ester], the Km in data set [3] is 26.2 µM.

For the compound “EphH (Rv3338) (Mycobacterium tuberculosis H37Rv)”, in data set [4], the Michaelis constant (Km) worked out at 21.03 µM, the Vmax came out at 1.027 µmol/min and the specificity constant (kcat/Km) is 870000 M⁻¹ s⁻¹.
